Experiments:
Assay type in all cases: functional
[1] = tested on: Trianthema; experiment: Pre-emergence herbicidal activity against Trianthema spp. in tomato field assessed as number of weeds at 4.56 kg/ha applied through drip lines/backpack-spray on week 3 to 4 before transplanting measured 12 weeks after treatment (reference value: 9 plants/m2)
[2] = tested on: Eleusine indica; experiment: Pre-emergence herbicidal activity against Eleusine indica in tomato field assessed as total fruit weight at 4.56 kg/ha applied through drip lines/backpack-spray on week 3 to 4 before transplanting (reference value: 13.7 t/ha); conditions: pooled result: one value given for 8 cell lines, strains, targets or settings
[3] = tested on: Cyperus; experiment: Pre-emergence herbicidal activity against Cyperus in tomato field assessed as number of weeds at 4.56 kg/ha applied through drip lines/backpack-spray on week 3 to 4 before transplanting measured 12 weeks after treatment (reference value: 5 plants/m2)
[4] = tested on: Portulaca oleracea; experiment: Pre-emergence herbicidal activity against Portulaca oleracea in tomato field assessed as number of weeds at 4.56 kg/ha applied through drip lines/backpack-spray on week 3 to 4 before transplanting measured 7 weeks after treatment (reference value: 9 plants/m2); conditions: pooled result: one value given for 8 cell lines, strains, targets or settings
[5] = tested on: Boerhavia erecta; experiment: Pre-emergence herbicidal activity against Boerhavia erecta in tomato field assessed as number of weeds at 4.56 kg/ha applied through drip lines/backpack-spray on week 3 to 4 before transplanting measured 12 weeks after treatment (reference value: 9 plants/m2)
[6] = tested on: Amaranthus dubius; experiment: Pre-emergence herbicidal activity against Amaranthus dubius in tomato field assessed as number of weeds at 4.56 kg/ha applied through drip lines/backpack-spray on week 3 to 4 before transplanting measured 12 weeks after treatment (reference value: 9 plants/m2)
[7] = tested on: Boerhavia erecta; experiment: Pre-emergence herbicidal activity against Boerhavia erecta in tomato field assessed as number of extra-large fruits at 4.56 kg/ha applied through drip lines/backpack-spray on week 3 to 4 before transplanting (reference value: 21.3 x 10 '3 ha); conditions: pooled result: one value given for 8 cell lines, strains, targets or settings
[8] = tested on: Eleusine indica; experiment: Pre-emergence herbicidal activity against Eleusine indica in tomato field assessed as extra-large fruit weight at 4.56 kg/ha applied through drip lines/backpack-spray on week 3 to 4 before transplanting (reference value: 7.3 t/ha); conditions: pooled result: one value given for 8 cell lines, strains, targets or settings
[9] = tested on: Digitaria; experiment: Pre-emergence herbicidal activity against Digitaria spp. in tomato field assessed as number of weeds at 4.56 kg/ha applied through drip lines/backpack-spray on week 3 to 4 before transplanting measured 12 weeks after treatment (reference value: 9 plants/m2)
[10] = tested on: Corynandra viscosa; experiment: Pre-emergence herbicidal activity against Cleome viscosa in tomato field assessed as number of weeds at 4.56 kg/ha applied through drip lines/backpack-spray on week 3 to 4 before transplanting measured 12 weeks after treatment (reference value: 9 plants/m2)
[11] = tested on: Poaceae; experiment: Pre-emergence herbicidal activity against Poaceae (grass family) in tomato field assessed as number of weeds at 4.56 kg/ha applied through drip lines/backpack-spray on week 3 to 4 before transplanting measured 7 weeks after treatment (reference value: 6 plants/m2)
[12] = tested on: Cyperus; experiment: Pre-emergence herbicidal activity against Cyperus in tomato field assessed as number of weeds at 4.56 kg/ha applied through drip lines/backpack-spray on week 3 to 4 before transplanting measured 7 weeks after treatment (reference value: 3 plants/m2)
[13] = tested on: Eleusine indica; experiment: Pre-emergence herbicidal activity against Eleusine indica in tomato field assessed as number of weeds at 4.56 kg/ha applied through drip lines/backpack-spray on week 3 to 4 before transplanting measured 12 weeks after treatment (reference value: 9 plants/m2)
[14] = tested on: Poaceae; experiment: Pre-emergence herbicidal activity against Poaceae (grass family) in tomato field assessed as number of weeds at 4.56 kg/ha applied through drip lines/backpack-spray on week 3 to 4 before transplanting measured 12 weeks after treatment (reference value: 8 plants/m2)
[15] = tested on: Eleusine indica; experiment: Pre-emergence herbicidal activity against Eleusine indica in tomato field assessed as total number of fruits at 4.56 kg/ha applied through drip lines/backpack-spray on week 3 to 4 before transplanting (reference value: 49.5 x 10 '3 ha); conditions: pooled result: one value given for 8 cell lines, strains, targets or settings
[16] = tested on: Echinochloa colona; experiment: Pre-emergence herbicidal activity against Echinochloa colona in tomato field assessed as number of weeds at 4.56 kg/ha applied through drip lines/backpack-spray on week 3 to 4 before transplanting measured 12 weeks after treatment (reference value: 9 plants/m2)
[17] = tested on: Portulaca oleracea; experiment: Pre-emergence herbicidal activity against Portulaca oleracea in tomato field assessed as number of weeds at 4.56 kg/ha applied through drip lines/backpack-spray on week 3 to 4 before transplanting measured 12 weeks after treatment (reference value: 9 plants/m2)
[18] = tested on: Corynandra viscosa; experiment: Pre-emergence herbicidal activity against Cleome viscosa in tomato field assessed as number of weeds at 0.80 kg/ha applied through drip lines/backpack-spray on week 3 to 4 before transplanting measured 12 weeks after treatment (reference value: 9 plants/m2)
[19] = tested on: Echinochloa colona; experiment: Pre-emergence herbicidal activity against Echinochloa colona in tomato field assessed as extra-large fruit weight at 0.80 kg/ha applied through drip lines/backpack-spray on week 3 to 4 before transplanting (reference value: 7.3 t/ha)
[20] = tested on: Eleusine indica; experiment: Pre-emergence herbicidal activity against Eleusine indica in tomato field assessed as number of weeds at 0.80 kg/ha applied through drip lines/backpack-spray on week 3 to 4 before transplanting measured 12 weeks after treatment (reference value: 9 plants/m2)
[21] = tested on: Trianthema; experiment: Pre-emergence herbicidal activity against Trianthema spp. in tomato field assessed as number of weeds at 0.80 kg/ha applied through drip lines/backpack-spray on week 3 to 4 before transplanting measured 7 weeks after treatment (reference value: 9 plants/m2)
[22] = tested on: Eleusine indica; experiment: Pre-emergence herbicidal activity against Eleusine indica in tomato field assessed as total fruit weight at 0.80 kg/ha applied through drip lines/backpack-spray on week 3 to 4 before transplanting (reference value: 13.7 t/ha); conditions: pooled result: one value given for 8 cell lines, strains, targets or settings
[23] = tested on: Cyperus; experiment: Pre-emergence herbicidal activity against Cyperus in tomato field assessed as number of weeds at 0.80 kg/ha applied through drip lines/backpack-spray on week 3 to 4 before transplanting measured 7 weeks after treatment (reference value: 3 plants/m2)
[24] = tested on: Eleusine indica; experiment: Pre-emergence herbicidal activity against Eleusine indica in tomato field assessed as number of extra-large fruits at 0.80 kg/ha applied through drip lines/backpack-spray on week 3 to 4 before transplanting (reference value: 21.3 x 10 '3 ha); conditions: pooled result: one value given for 8 cell lines, strains, targets or settings
[25] = tested on: Boerhavia erecta; experiment: Pre-emergence herbicidal activity against Boerhavia erecta in tomato field assessed as number of weeds at 0.80 kg/ha applied through drip lines/backpack-spray on week 3 to 4 before transplanting measured 7 weeks after treatment (reference value: 9 plants/m2)
[26] = tested on: Digitaria; experiment: Pre-emergence herbicidal activity against Digitaria spp. in tomato field assessed as extra-large fruit weight at 0.80 kg/ha applied through drip lines/backpack-spray on week 3 to 4 before transplanting (reference value: 7.3 t/ha)
[27] = tested on: Eleusine indica; experiment: Pre-emergence herbicidal activity against Eleusine indica in tomato field assessed as number of weeds at 0.80 kg/ha applied through drip lines/backpack-spray on week 3 to 4 before transplanting measured 7 weeks after treatment (reference value: 9 plants/m2)
[28] = tested on: Eleusine indica; experiment: Pre-emergence herbicidal activity against Eleusine indica in tomato field assessed as total number of fruits at 0.80 kg/ha applied through drip lines/backpack-spray on week 3 to 4 before transplanting (reference value: 49.5 x 10 '3 ha); conditions: pooled result: one value given for 8 cell lines, strains, targets or settings
[29] = tested on: Corynandra viscosa; experiment: Pre-emergence herbicidal activity against Cleome viscosa in tomato field assessed as number of weeds at 0.80 kg/ha applied through drip lines/backpack-spray on week 3 to 4 before transplanting measured 7 weeks after treatment (reference value: 9 plants/m2)
[30] = tested on: Poaceae; experiment: Pre-emergence herbicidal activity against Poaceae (grass family) in tomato field assessed as number of weeds at 0.80 kg/ha applied through drip lines/backpack-spray on week 3 to 4 before transplanting measured 7 weeks after treatment (reference value: 6 plants/m2)
[31] = tested on: Trianthema; experiment: Pre-emergence herbicidal activity against Trianthema spp. in tomato field assessed as extra-large fruit weight at 0.80 kg/ha applied through drip lines/backpack-spray on week 3 to 4 before transplanting (reference value: 7.3 t/ha)
[32] = tested on: Echinochloa colona; experiment: Pre-emergence herbicidal activity against Echinochloa colona in tomato field assessed as number of weeds at 0.80 kg/ha applied through drip lines/backpack-spray on week 3 to 4 before transplanting measured 7 weeks after treatment (reference value: 9 plants/m2)
[33] = tested on: Trianthema; experiment: Pre-emergence herbicidal activity against Trianthema spp. in tomato field assessed as number of weeds at 0.80 kg/ha applied through drip lines/backpack-spray on week 3 to 4 before transplanting measured 12 weeks after treatment (reference value: 9 plants/m2)
[34] = tested on: Eleusine indica; experiment: Pre-emergence herbicidal activity against Eleusine indica in tomato field assessed as extra-large fruit weight at 0.80 kg/ha applied through drip lines/backpack-spray on week 3 to 4 before transplanting (reference value: 7.3 t/ha)
[35] = tested on: Amaranthus dubius; experiment: Pre-emergence herbicidal activity against Amaranthus dubius in tomato field assessed as number of weeds at 0.80 kg/ha applied through drip lines/backpack-spray on week 3 to 4 before transplanting measured 7 weeks after treatment (reference value: 9 plants/m2)
[36] = tested on: Digitaria; experiment: Pre-emergence herbicidal activity against Digitaria spp. in tomato field assessed as number of weeds at 0.80 kg/ha applied through drip lines/backpack-spray on week 3 to 4 before transplanting measured 12 weeks after treatment (reference value: 9 plants/m2)
[37] = tested on: Portulaca oleracea; experiment: Pre-emergence herbicidal activity against Portulaca oleracea in tomato field assessed as number of weeds at 0.80 kg/ha applied through drip lines/backpack-spray on week 3 to 4 before transplanting measured 7 weeks after treatment (reference value: 9 plants/m2)
[38] = tested on: Portulaca oleracea; experiment: Pre-emergence herbicidal activity against Portulaca oleracea in tomato field assessed as extra-large fruit weight at 0.80 kg/ha applied through drip lines/backpack-spray on week 3 to 4 before transplanting (reference value: 7.3 t/ha)
[39] = tested on: Amaranthus dubius; experiment: Pre-emergence herbicidal activity against Amaranthus dubius in tomato field assessed as number of weeds at 0.80 kg/ha applied through drip lines/backpack-spray on week 3 to 4 before transplanting measured 12 weeks after treatment (reference value: 9 plants/m2)
[40] = tested on: Boerhavia erecta; experiment: Pre-emergence herbicidal activity against Boerhavia erecta in tomato field assessed as number of weeds at 0.80 kg/ha applied through drip lines/backpack-spray on week 3 to 4 before transplanting measured 12 weeks after treatment (reference value: 9 plants/m2)
[41] = tested on: Amaranthus dubius; experiment: Pre-emergence herbicidal activity against Amaranthus dubius in tomato field assessed as extra-large fruit weight at 0.80 kg/ha applied through drip lines/backpack-spray on week 3 to 4 before transplanting (reference value: 7.3 t/ha)
[42] = tested on: Corynandra viscosa; experiment: Pre-emergence herbicidal activity against Cleome viscosa in tomato field assessed as extra-large fruit weight at 0.80 kg/ha applied through drip lines/backpack-spray on week 3 to 4 before transplanting (reference value: 7.3 t/ha)
[43] = tested on: Boerhavia erecta; experiment: Pre-emergence herbicidal activity against Boerhavia erecta in tomato field assessed as extra-large fruit weight at 0.80 kg/ha applied through drip lines/backpack-spray on week 3 to 4 before transplanting (reference value: 7.3 t/ha)
[44] = tested on: Cyperus; experiment: Pre-emergence herbicidal activity against Cyperus in tomato field assessed as number of weeds at 0.80 kg/ha applied through drip lines/backpack-spray on week 3 to 4 before transplanting measured 12 weeks after treatment (reference value: 5 plants/m2)
[45] = tested on: Digitaria; experiment: Pre-emergence herbicidal activity against Digitaria spp. in tomato field assessed as number of weeds at 0.80 kg/ha applied through drip lines/backpack-spray on week 3 to 4 before transplanting measured 7 weeks after treatment (reference value: 9 plants/m2)
[46] = tested on: Poaceae; experiment: Pre-emergence herbicidal activity against Poaceae (grass family) in tomato field assessed as number of weeds at 0.80 kg/ha applied through drip lines/backpack-spray on week 3 to 4 before transplanting measured 12 weeks after treatment (reference value: 8 plants/m2)
[47] = tested on: Portulaca oleracea; experiment: Pre-emergence herbicidal activity against Portulaca oleracea in tomato field assessed as number of weeds at 0.80 kg/ha applied through drip lines/backpack-spray on week 3 to 4 before transplanting measured 12 weeks after treatment (reference value: 9 plants/m2)
[48] = tested on: Echinochloa colona; experiment: Pre-emergence herbicidal activity against Echinochloa colona in tomato field assessed as number of weeds at 0.80 kg/ha applied through drip lines/backpack-spray on week 3 to 4 before transplanting measured 12 weeks after treatment (reference value: 9 plants/m2)

CCCCN(CC)C(=O)SCCC [PEBULATE]
Activity [1]: 8 /m2
Activity [2]: 15.3 tons/ha
Activity [3]: 6 /m2
Activity [4]: 14 /m2
Activity [5]: 8 /m2
Activity [6]: 8 /m2
fruit count [7]: 24.5 10³ fruits/ha
Activity [8]: 8.4 tons/ha
Activity [9]: 8 /m2
Activity [10]: 8 /m2
Activity [11]: 4 /m2
Activity [12]: 4 /m2
Activity [13]: 8 /m2
Activity [14]: 5 /m2
fruit number [15]: 55 10^3 fruits/ha
Activity [16]: 8 /m2
Activity [17]: 8 /m2

CCCN(CCC)c1c([N+](=O)[O-])cc(C(F)(F)F)cc1[N+](=O)[O-] [TRIFLURALIN]
Activity [18]: 7 /m2
Activity [19]: 9.6 tons/ha
Activity [20]: 7 /m2
Activity [21]: 10 /m2
Activity [22]: 15.9 tons/ha
Activity [23]: 5 /m2
fruit count [24]: 29.5 10^3 fruits/ha
Activity [25]: 10 /m2
Activity [26]: 9.6 tons/ha
Activity [27]: 10 /m2
fruit number [28]: 59.5 10^3 fruits/ha
Activity [29]: 10 /m2
Activity [30]: 6 /m2
Activity [31]: 9.6 tons/ha
Activity [32]: 10 /m2
Activity [33]: 7 /m2
Activity [34]: 9.6 tons/ha
Activity [35]: 10 /m2
Activity [36]: 7 /m2
Activity [37]: 10 /m2
Activity [38]: 9.6 tons/ha
Activity [39]: 7 /m2
Activity [40]: 7 /m2
Activity [41]: 9.6 tons/ha
Activity [42]: 9.6 tons/ha
Activity [43]: 9.6 tons/ha
Activity [44]: 8 /m2
Activity [45]: 10 /m2
Activity [46]: 5 /m2
Activity [47]: 7 /m2
Activity [48]: 7 /m2

— ChEMBL document CHEMBL3044556, “Managing weeds with drip-applied herbicides in tomato” (2008)
